Test results published in patent EP4635958A1, “PYRIMIDINE-CONTAINING POLYCYCLIC DERIVATIVE INHIBITOR, AND PREPARATION METHOD THEREFOR AND USE THEREOF” (Shanghai Hansoh Biomedical Co., Ltd., priority 2022, dated 2024).
Where a name gives a salt, the structure may show the parent alone.

How the values were obtained:
AsPC-1 = assay: Inhibition of proliferation of KRAS G12D mutant tumor cell line AsPC-1 (CellTiter-Glo); type: cell-based
How it was run: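 KRAS G12D-mutant AsPC-1 cells plated overnight at 37 °C/5% CO2, then exposed to serial compound dilutions (DMSO/medium, vehicle control) for about 72 h. Viability read by CellTiter-Glo luminescence; inhibition rate vs concentration fitted by nonlinear regression for IC50.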

[1] = Plasma stability test, mouse plasma; type: in vitro ADME; conditions: for half-life: read-out: t1/2 (converted);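 as to all read-outs here: test compound quantified by LC-MS using positive-mode electrospray ionization and MRM scanning, with an internal standard added in acetonitrile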
Experimental: Liquid chromatography-mass spectrometer, centrifuge, vortexer, pipette, continuous dispenser, 96-well plate, 50% methanol aqueous solution, acetonitrile solution containing internal standard, blank matrix (plasma of rat, dog, or human), Propantheline (propantheline bromide), Mevinolin (lovastatin), and test compound.
After whole blood was collected from animals or humans, it was placed in a test tube containing an anticoagulant and centrifuged at 3500 rpm for 10 min to collect the upper pale yellow plasma.
The compound was weighed and the stock solution was formulated with DMSO and the working solution was formulated with 100 mM phosphate buffer.
• Instrument: API4000 liquid chromatography-mass spectrometer, AB Company, USA; • the ion source was electrospray ionization source (ESI); • drying gas (N2) temperature was 500°C; • electrospray voltage was 5500V; • the detection method was positive ion detection; • the scanning method was selected reaction monitoring (MRM); • the scanning time was 0.1s.

p-ERK in AGS cells = assay: Inhibition of p-ERK in AGS cells (LANCE Ultra phospho-ERK1/2 kit); type: cell-based; conditions: Homo sapiens, AGS, 2 h, read-out: AGS_pERK IC50
Experimental: 1. Experimental objective: The inhibition activity of the example compounds on the phosphorylated ERK level in KRAS G12D mutant cells AGS was determined. 2. Experimental instruments: • 2.1 Instruments: Envison; Pipette (Eppendorf & Rainin) • 2.2 Reagents: AGS cells were purchased from COBIOER BIOSCIENCES CO., LTD, with a catalog number of CBP60476; Phosphorylated ERK1/2 (T202-Y204) LANCE Ultra Cellular Detection Kit was purchased from PerkinElmer, with a catalog number of TRF4000M; RPMI 1640 was purchased from Gibco, with a catalog number of 22400071; FBS was purchased from Gibco, with a catalog number of 10091148; PBS was purchased from Gibco, with a catalog number of 10010023; trypsin was purchased from Gibco, with a catalog number of 25200056; cell culture plates were purchased from Corning Company, with a catalog number of 3610; White opaque OptiPlate™-384 plates were purchased from PerkinElmer, with a catalog number of 6007290. 3. Experimental method: When AGS cells were cultured to appropriate confluence, the AGS cells were collected, and the cell density was adjusted to 4 × 10^5/mL using complete culture medium. The cell suspension was plated onto a 96-well plate at 100 µL per well, and the plate was placed in the incubator at 37°C and 5% CO2 for adherent culture overnight. Solutions of the compound with different concentrations were formulated using DMSO and complete culture medium, and a vehicle control was set up. The solutions of the compound were added to the 96-well plate at 25 µL per well, and the plate was placed in the incubator at 37°C and 5% CO2 for further culture for 2 h. Then, the supernatant of the cell culture plate was discarded, 50 µL of lysis buffer was added to each well, the cells were lysed at room temperature under shaking for 30 min, then placed in a centrifuge and centrifuged at 1000 rpm for 1 min. 15 µL of supernatant was transferred to a 384-well plate, 5 µL of detection mixture was added to each well (Eu-labeled anti-ERK1/2 (T202-Y204) Antibody at a final detection concentration of 0.5 nM and ULight labeled anti-ERK1/2 Antibody at a final detection concentration of 5 nM), centrifuged at 1000 rpm for 1 min, mixed evenly, and reacted at room temperature overnight. The plate was read using Envison and the signal values at the emission wavelengths of 620 nm and 665 nm were detected using a time-resolved fluorescence program. 4. […] Graphpad Prism software was used to fit the concentration and inhibition rate to a nonlinear regression curve, so as to obtain the IC50 value. Table 5: Inhibition activity of the compounds on p-ERK in AGS cells

[2] = Homo sapiens, ASPC1, about 72 h

Row | Compound | IC50 (AsPC-1; about 72 h) [nM] | Remaining rate (%) 0 min ([1]; Mouse plasma, 37°C, 0 min) [%] | Remaining rate (%) 15 min ([1]; Mouse plasma, 37°C, 15 min) [%] | Remaining rate (%) 30 min ([1]; Mouse plasma, 37°C, 30 min) [%] | Remaining rate (%) 60 min ([1]; Mouse plasma, 37°C, 60 min) [%] | Remaining rate (%) 120 min ([1]; Mouse plasma, 37°C, 120 min) [%] | half-life ([1]; Mouse plasma, 37°C) [h] | IC50 (p-ERK in AGS cells) [nM] | IC50 (AsPC-1; [2]) [nM] | Remaining rate (%) 0 min ([1]; mouse, plasma, 0 h) [%] | Remaining rate (%) 15 min ([1]; mouse, plasma, 0.25 h) [%] | Remaining rate (%) 30 min ([1]; mouse, plasma, 0.5 h) [%] | Remaining rate (%) 60 min ([1]; mouse, plasma, 1 h) [%] | Remaining rate (%) 120 min ([1]; mouse, plasma, 2 h) [%]
1 | 4-((5S,5aS,6R,9S)-12-((1-((((R)-4-(difluoromethylene)-2-methylpiperidin-1-yl)methyl)cyclopropyl)methoxy)-1-fluoro-5-(methyl-d3)-5a,6,7,8,9,10-hexahydro-5H-4-oxa-3,10a,11,13,14-pentaaza-6,9-methylnaphtho[1,8-ab]hept-2-yl)-5-ethynyl-6-fluoronaphthalen-2-ol [Example 162] | 4 |  |  |  |  |  |  |  |  |  |  |  |  | 
2 | C#Cc1c(F)ccc2cc(O)cc(-c3nc4c5c(nc(OCC6(CN7CCC(=C(F)F)CC7)CC6)nc5c3F)N3C[C@H]5CC[C@H](N5)[C@H]3CO4)c12 [Example 1-1, 4-((5aS,6S,9R)-12-((1-((4-(difluoromethylene)piperidin-1-yl)methyl)cyclopropyl)methoxy)-1-fluoro-5a,6,7,8,9,10-hexahydro-5H-4-oxa-3,10a,11,13,14-pentaaza-6,9-methylenenaphtho[1,8-ab]heptalene-2-yl)-5-ethynyl-6-fluoronaphthalen-2-ol] |  | 100.00 | 94.74 | 96.27 | 96.21 | 98.50 | 146 | 7 |  |  |  |  |  | 
3 | C#Cc1c(F)ccc2cc(O)cc(-c3nc4c5c(nc(OCC6(CN7CCC(=C(F)F)CC7)CC6)nc5c3F)N3C[C@H]5CC[C@H](N5)[C@H]3[C@H](C)O4)c12 [Example 19-1, 4-((5S,5aS,6S,9R)-12-((1-((4-(difluoromethylene)piperidin-1-yl)methyl)cyclopropyl)methoxy)-1-fluoro-5-methyl-5a,6,7,8,9,10-hexahydro-5H-4-oxa-3,10a,11,13,14-pentaaza-6,9-methylnaphtho[1,8-ab]hept-2-yl)-5-ethynyl-6-fluoronaphthalene-2-ol] |  | 100.00 | 101.30 | 98.20 | 91.51 | 92.09 | 27.4 | 5.6 | 3.1 |  |  |  |  | 
4 | C#Cc1c(F)ccc2cc(O)cc(-c3nc4c5c(nc(OCC6(CN7CCC(=NOC)CC7)CC6)nc5c3F)N3C[C@H]5CC[C@H](N5)[C@H]3[C@H](C)O4)c12 [Example 35-1, 1-((1-((((5S,5aS,6S,9R)-2-(8-ethynyl-7-fluoro-3-hydroxynaphthalen-1-yl)-1-fluoro-5-methyl-5a,6,7,8,9,10-hexahydro-5H-4-oxa-3,10a,11,13,14-pentaaza-6,9-methylenenaphtho[1,8-ab]heptalen-12-yl)oxo)methyl)cyclopropyl)methyl)piperidin-4-one O-methyloxime formate] |  |  |  |  |  |  |  | 2.7 | 3.8 |  |  |  |  | 
5 | C#Cc1c(F)ccc2cc(O)cc(-c3nc4c5c(nc(OCC6(CN7CCC(=CF)CC7)CC6)nc5c3F)N3C[C@H]5CC[C@H](N5)[C@H]3[C@H](C)O4)c12 [Example 129, 5-ethynyl-6-fluoro-4-((5S,5aS,6S,9R)-1-fluoro-12-((1-((4-(fluoromethylene)piperidin-1-yl)methyl)cyclopropyl)methoxy)-5-methyl-5a,6,7,8,9,10-hexahydro-5H-4-oxa-3,10a,11,13,14-pentaaza-6,9-methylnaphtho[1,8-ab]hept-2-yl)naphthalen-2-ol] |  | 100.00 | 97.30 | 103.47 | 104.94 | 91.62 | 37.6 | 2.4 | 3.6 |  |  |  |  | 
6 | [2H]C([2H])([2H])[C@@H]1Oc2nc(-c3cc(O)cc4ccc(F)c(C#C)c34)c(F)c3nc(OCC4(CN5CCC(=C(F)F)CC5)CC4)nc(c23)N2C[C@H]3CC[C@H](N3)[C@@H]12 [Example 161, 4-((5S,5aS,6S,9R)-12-((1-((4-(difluoromethylene)piperidin-1-yl)methyl)cyclopropyl)methoxy)-1-fluoro-5-(methyl-d3)-5a,6,7,8,9,10-hexahydro-5H-4-oxa-3,10a,11,13,14-pentaaza-6,9-methylnaphtho[1,8-ab]hept-2-yl)-5-ethynyl-6-fluoronaphthalen-2-ol] |  |  |  |  |  |  | 229 | 4.9 | 4.4 | 100.00 | 101.36 | 101.38 | 98.35 | 101.35
7 | [2H]C([2H])([2H])[C@@H]1Oc2nc(-c3cc(O)cc4ccc(F)c(C#C)c34)c(F)c3nc(OCC4(CN5CCC(=CF)CC5)CC4)nc(c23)N2C[C@H]3CC[C@H](N3)[C@@H]12 [Example 164] |  | 100.00 | 99.34 | 95.56 | 101.65 | 100.99 | 149 | 3.6 | 6.6 |  |  |  |  | 
8 | [2H]C([2H])(Oc1nc2c3c(nc(-c4cc(O)cc5ccc(F)c(C#C)c45)c(F)c3n1)O[C@@H](C)[C@@H]1[C@@H]3CC[C@H](CN21)N3)C1(C([2H])([2H])N2CCC(=CF)CC2)CC1 [Example 291, 5-ethynyl-6-fluoro-4-((5S,5aS,6S,9R)-1-fluoro-12-((1-((4-(fluoromethylene)piperidin-1-yl)methyl-d2)cyclopropyl)methoxy-d2)-5-methyl-5a,6,7,8,9,10-hexahydro-5H-4-oxa-3,10a,11,13,14-pentaaza-6,9-methylnaphtho[1,8-ab]hept-2-yl)naphthalen-2-ol] |  | 100.00 | 97.50 | 82.58 | 81.82 | 63.23 | 3.08 | 2.3 | 4.6 |  |  |  |  | 
9 | CON=C1CCN(CC2(COc3nc4c5c(nc(-c6cc(N)cc(Cl)c6C(F)(F)F)c(F)c5n3)O[C@@H](C)[C@@H]3[C@@H]5CC[C@H](CN43)N5)CC2)CC1 [Example 337, 1-((1-((((5S,5aS,6S,9R)-2-(5-amino-3-chloro-2-(trifluoromethyl)phenyl)-1-fluoro-5-methyl-5a,6,7,8,9,10-hexahydro-5H-4-oxa-3,10a,11,13,14-pentaaza-6,9-methylnaphtho[1,8-ab]heptene-12-yl)oxy)methyl)cyclopropyl)methyl)piperidin-4-one O-methyloxime] |  |  |  |  |  |  |  | 4.6 | 1.2 |  |  |  |  | 
10 | [2H]C([2H])([2H])[C@@H]1Oc2nc(-c3cc(N)cc(Cl)c3C(F)(F)F)c(F)c3nc(OCC4(CN5CCC(=NOC)CC5)CC4)nc(c23)N2C[C@H]3CC[C@H](N3)[C@@H]12 [Example 339] |  |  |  |  |  |  |  | 4.4 | 3.5 |  |  |  |  | 
